Source: US20250154141A1 (University of Florida Research Foundation, Incorporated, priority 2021, published 2025)
Like-named read-outs stand apart in the source and are kept apart here.

Assays:
[1] = system: MOLT-4; experiment: Cell viability assay (MTS) in MOLT-4 cells; type: cell-based; details: Homo sapiens, MOLT-4
Experimental: (§1) Acute lymphoblastic leukemia cells (MOLT-4 and RS4; 11) were incubated with increasing concentrations of Bcl-xL degraders for 48 h. Cell viability was measured by tetrazolium-based MTS assay.

[2] = system: RS4; 11; experiment: Cell viability assay (MTS) in RS4; 11 cells; type: cell-based; details: Homo sapiens, RS4-11
Experimental: as §1

[3] = Table 2, 48 hr, MTS, read-out: Anti-Cancer Activity IC50 (48 hr) MOLT-4
[4] = Table 2, 48 hr, MTS, read-out: Anti-Cancer Activity IC50 (48 hr) RS4, 11

IC50 [1, 3] [nM]	IC50 [2, 4] [nM]	IC50 ([1]; Table 4, 48 h, read-out: MOLT-4 48 h IC50) [nM]	IC50 ([2]; Table 4, 48 h, read-out: RS4 48 h IC50) [nM]	IC50 ([1]; Table 2A, 48 hr, MTS, read-out: Anti-Cancer Activity IC50 (48 hr) MOLT-4) [nM]	IC50 ([2]; Table 2A, 48 hr, MTS, read-out: Anti-Cancer Activity IC50 (48 hr) RS4, 11) [nM]	Compound
< 20	20 to 100	–	–	–	–	Cc1ncsc1-c1ccc([C@H](C)NC(=O)[C@@H]2C[C@@H](O)CN2C(=O)[C@@H](NC(=O)CCCCCCCNC(=O)c2ccc(N3CCN(C[C@]4(C)CCC(c5ccc(Cl)cc5)=C(CN5CCN(c6ccc(C(=O)NS(=O)(=O)c7ccc(N[C@H](CCN8C[C@H]9C[C@@H]8CO9)CSc8ccccc8)c(S(=O)(=O)C(F)(F)F)c7)cc6)CC5)C4)CC3)nc2)C(C)(C)C)cc1 [Compound 74]
< 20	< 20	–	–	–	–	Cc1ncsc1-c1ccc([C@H](C)NC(=O)[C@@H]2C[C@@H](O)CN2C(=O)[C@@H](NC(=O)CCCCCNC(=O)c2ccc(CN3CCN(C[C@]4(C)CCC(c5ccc(Cl)cc5)=C(CN5CCN(c6ccc(C(=O)NS(=O)(=O)c7ccc(N[C@H](CCN8CCCOCC8)CSc8ccccc8)c(S(=O)(=O)C(F)(F)F)c7)cc6)CC5)C4)CC3)nc2)C(C)(C)C)cc1 [Compound 80]
20 to 100	20 to 100	–	–	–	–	Cc1ncsc1-c1ccc([C@H](C)NC(=O)[C@@H]2C[C@@H](O)CN2C(=O)[C@@H](NC(=O)CCCC(=O)N2CCN(CC3CCN(CC4(C)CCC(c5ccc(Cl)cc5)=C(CN5CCN(c6ccc(C(=O)NS(=O)(=O)c7ccc(N[C@H](CCN8CCOCC8)CSc8ccccc8)c(S(=O)(=O)C(F)(F)F)c7)cc6)CC5)C4)CC3)CC2)C(C)(C)C)cc1 (stereo partly shown) [Compound 18]
100 to 500	100 to 500	–	–	–	–	Cc1ncsc1-c1ccc([C@H](C)NC(=O)[C@@H]2C[C@@H](O)CN2C(=O)[C@@H](NC(=O)CC2CCN(CC(=O)N3CCN(CC4(C)CCC(c5ccc(Cl)cc5)=C(CN5CCN(c6ccc(C(=O)NS(=O)(=O)c7ccc(N[C@H](CCN8CCOCC8)CSc8ccccc8)c(S(=O)(=O)C(F)(F)F)c7)cc6)CC5)C4)CC3)CC2)C(C)(C)C)cc1 (stereo partly shown) [Compound 27]
100 to 500	20 to 100	–	–	–	–	Cc1ncsc1-c1ccc([C@H](C)NC(=O)[C@@H]2C[C@@H](O)CN2C(=O)[C@@H](NC(=O)CCCCCCC(=O)N2CCN(C[C@]3(C)CCC(c4ccc(Cl)cc4)=C(CN4CCN(c5ccc(C(=O)NS(=O)(=O)c6ccc(N[C@H](CCN7CCc8cccnc8C7)CSc7ccccc7)c(S(=O)(=O)C(F)(F)F)c6)cc5)CC4)C3)CC2)C(C)(C)C)cc1 [Compound 71]
500 to 10000	500 to 10000	–	–	–	–	Cc1ncsc1-c1ccc([C@H](C)NC(=O)[C@@H]2C[C@@H](O)CN2C(=O)[C@@H](NC(=O)CCCCCCC(=O)N2CCN(C[C@]3(C)CCC(c4ccc(Cl)cc4)=C(CN4CCN(c5ccc(C(=O)NS(=O)(=O)c6ccc(N[C@H](CCN7CCOC8(CCC8)C7)CSc7ccccc7)c(S(=O)(=O)C(F)(F)F)c6)cc5)CC4)C3)CC2)C(C)(C)C)cc1 [Compound 93]
< 20	< 20	4.4	7	–	–	Cc1ncsc1-c1ccc([C@H](C)NC(=O)[C@@H]2C[C@@H](O)CN2C(=O)[C@@H](NC(=O)CCCCCNC(=O)c2ccc(N3CCN(C[C@]4(C)CCC(c5ccc(Cl)cc5)=C(CN5CCN(c6ccc(C(=O)NS(=O)(=O)c7ccc(N[C@H](CCN8C[C@H]9C[C@@H]8CO9)CSc8ccccc8)c(S(=O)(=O)C(F)(F)F)c7)cc6)CC5)C4)CC3)nc2)C(C)(C)C)cc1 [Compound 72]
100 to 500	20 to 100	–	–	–	–	Cc1ncsc1-c1ccc([C@H](C)NC(=O)[C@@H]2C[C@@H](O)CN2C(=O)[C@@H](NC(=O)CCCCCCC(=O)N2CCN(CCC3(C)CCC(c4ccc(Cl)cc4)=C(CN4CCN(c5ccc(C(=O)NS(=O)(=O)c6ccc(N[C@H](CCN7CCOCC7)CSc7ccccc7)c(S(=O)(=O)C(F)(F)F)c6)cc5)CC4)C3)CC2)C(C)(C)C)cc1 (stereo partly drawn) [Compound 28, (2S,4R)-1-((2S)-2-(8-(4-(2-(4′-chloro-4-methyl-6-((4-(4-(((4-(((R)-4-morpholino-1-(phenylthio)butan-2-yl)amino)-3-((trifluoromethyl)sulfonyl)phenyl)sulfonyl)carbamoyl)phenyl)piperazin-1-yl)methyl)-2,3,4,5-tetrahydro-[1,1′-biphenyl]-4-yl)ethyl)piperazin-1-yl)-8-oxooctanamido)-3,3-dimethylbutanoyl)-4-hydroxy-N—((S)-1-(4-(4-methylthiazol-5-yl)phenyl)ethyl)pyrrolidine-2-carboxamide]
100 to 500	20 to 100	–	–	–	–	Cc1ncsc1-c1ccc([C@H](C)NC(=O)[C@@H]2C[C@@H](O)CN2C(=O)[C@@H](NC(=O)CC(=O)N2CCN(CC3CCN(CC4(C)CCC(c5ccc(Cl)cc5)=C(CN5CCN(c6ccc(C(=O)NS(=O)(=O)c7ccc(N[C@H](CCN8CCOCC8)CSc8ccccc8)c(S(=O)(=O)C(F)(F)F)c7)cc6)CC5)C4)CC3)CC2)C(C)(C)C)cc1 (stereo partly shown) [Compound 17]
< 20	< 20	–	–	–	–	Cc1ncsc1-c1ccc([C@H](C)NC(=O)[C@@H]2C[C@@H](O)CN2C(=O)[C@@H](NC(=O)CCCCCCC(=O)N2CCN(CC3(C)CCC(c4ccc(Cl)cc4)=C(CN4CCN(c5ccc(C(=O)NS(=O)(=O)c6ccc(N[C@H](CCN(C)C)CSc7ccccc7)c([N+](=O)[O-])c6)cc5)CC4)C3)CC2)C(C)(C)C)cc1 (stereo partly drawn) [Compound 34, (2S,4R)-1-((2S)-2-(8-(4-((4′-chloro-6-((4-(4-(((4-(((R)-4-(dimethylamino)-1-(phenylthio)butan-2-yl)amino)-3-nitrophenyl)sulfonyl)carbamoyl)phenyl)piperazin-1-yl)methyl)-4-methyl-2,3,4,5-tetrahydro-[1,1′-biphenyl]-4-yl)methyl)piperazin-1-yl)-8-oxooctanamido)-3,3-dimethylbutanoyl)-4-hydroxy-N—((S)-1-(4-(4-methylthiazol-5-yl)phenyl)ethyl)pyrrolidine-2-carboxamide]
20 to 100	< 20	–	–	–	–	Cc1ncsc1-c1ccc([C@H](C)NC(=O)[C@@H]2C[C@@H](O)CN2C(=O)[C@@H](NC(=O)CCCCCCC(=O)N2CCN(C[C@]3(C)CCC(c4ccc(Cl)cc4)=C(CN4CCN(c5ccc(C(=O)NS(=O)(=O)c6ccc(N[C@H](CCN7CC8CCC7C8)CSc7ccccc7)c([N+](=O)[O-])c6)cc5)CC4)C3)CC2)C(C)(C)C)cc1 (stereo partly drawn) [Compound 53, (2S,4R)-1-((2S)-2-(8-(4-(((4R)-6-((4-(4-(((4-(((2R)-4-(2-azabicyclo[2.2.1]heptan-2-yl)-1-(phenylthio)butan-2-yl)amino)-3-nitrophenyl)sulfonyl)carbamoyl)phenyl)piperazin-1-yl)methyl)-4′-chloro-4-methyl-2,3,4,5-tetrahydro-[1,1′-biphenyl]-4-yl)methyl)piperazin-1-yl)-8-oxooctanamido)-3,3-dimethylbutanoyl)-4-hydroxy-N—((S)-1-(4-(4-methylthiazol-5-yl)phenyl)ethyl)pyrrolidine-2-carboxamide]
–	–	–	–	< 20	< 20	Cc1ncsc1-c1ccc([C@H](C)NC(=O)[C@@H]2C[C@@H](O)CN2C(=O)[C@@H](NC(=O)CCCCC(=O)N2CCC(N3CCN(C[C@]4(C)CCC(c5ccc(Cl)cc5)=C(CN5CCN(c6ccc(C(=O)NS(=O)(=O)c7ccc(N[C@H](CCN8CCCOCC8)CSc8ccccc8)c(S(=O)(=O)C(F)(F)F)c7)cc6)CC5)C4)CC3)CC2)C(C)(C)C)cc1 [Compound 120]
20 to 100	20 to 100	–	–	–	–	Cc1ncsc1-c1ccc([C@H](C)NC(=O)[C@@H]2C[C@@H](O)CN2C(=O)[C@@H](NC(=O)CCCNC(=O)c2ccc(N3CCN(CCN(C)CC4(C)CCC(c5ccc(Cl)cc5)=C(CN5CCN(c6ccc(C(=O)NS(=O)(=O)c7ccc(N[C@H](CCN8CCOCC8)CSc8ccccc8)c(S(=O)(=O)C(F)(F)F)c7)cc6)CC5)C4)CC3)cc2)C(C)(C)C)cc1 (stereo partly shown) [Compound 14]
